Patent US20230226096A1 (Orna Therapeutics, Inc., priority 2020, published 2023)
“Also recorded” adds a separate entry of the source.

What was measured:
[1] = RNA encapsulation / entrapment by Ribogreen assay; assay type: physicochemical; conditions: Table 36b, LNPs with circular RNA
Experimental: A QUANT-IT™ RIBOGREEN® RNA assay (Invitrogen Corporation Carlsbad, Calif.) can be used to evaluate the encapsulation of circRNA by the nanoparticle composition. The samples are diluted to a concentration of approximately 5 μg/mL or 1 μg/mL in a TE buffer solution (10 mM Tris-HCl, 1 mM EDTA, pH 7.5). 50 μL of the diluted samples are transferred to a polystyrene 96 well plate and either 50 μL of TE buffer or 50 μL of a 2-4% Triton X-100 solution is added to the wells. The plate is incubated at a temperature of 37° C. for 15 minutes. The RIBOGREEN® reagent is diluted 1:100 or 1:200 in TE buffer, and 100 μL of this solution is added to each well. The fluorescence intensity can be measured using a fluorescence plate reader (Wallac Victor 1420 Multilabel Counter; Perkin Elmer, Waltham, Mass.) at an excitation wavelength of, for example, about 480 nm and an emission wavelength of, for example, about 520 nm. The fluorescence values of the reagent blank are subtracted from that of each of the samples and the percentage of free circRNA is determined by dividing the fluorescence intensity of the intact sample (without addition of Triton X-100) by the fluorescence value of the disrupted sample (caused by the addition of Triton X-100). C.
For transfer vehicle compositions including RNA, a QUANT-IT™ RIBOGREEN® RNA assay (Invitrogen Corporation Carlsbad, Calif.) can be used to evaluate the encapsulation of RNA by the transfer vehicle composition. […] The fluorescence intensity can be measured using a fluorescence plate reader (Wallac Victor 1420 Multilabel Counter; Perkin Elmer, Waltham, Mass.) at an excitation wavelength of, for example, about 480 nm and an emission wavelength of, for example, about 520 nm. The fluorescence values of the reagent blank are subtracted from that of each of the samples and the percentage of free RNA is determined by dividing the fluorescence intensity of the intact sample (without addition of Triton X-100) by the fluorescence value of the disrupted sample (caused by the addition of Triton X-100). […]

[2] = LNP particle size (Z-average) and polydispersity index by dynamic light scattering; assay type: physicochemical; conditions: Table 36b, LNPs with circular RNA
Experimental: The microfluidic chamber is cleaned with ethanol and neMYSIS syringe pumps are prepared by loading a syringe with the RNA solution and another syringe with the ethanolic lipid. Both syringes are loaded and under the control of neMESYS software. The solutions are then applied to the mixing chip at an aqueous to organic phase ratio of 2 and a total flow rate of 22 ml/min (14.67 ml/min for RNA and 7.33 ml/min for the lipid solution. Both pumps are started synchronously. The mixer solution that flowed from the microfluidic chip is collected in 4×1 ml fractions with the first fraction being discarded as waste. The remaining solution containing the circRNA-transfer vehicles is exchanged by using G-25 mini desalting columns to 10 mM Tris-HCl, 1 mM EDTA, at pH 7.5, as described above. Following buffer exchange, the materials are characterized for size, and RNA entrapment through DLS analysis and Ribogreen assays, respectively.
Lipid Nanoparticles (LNPs) were formed using a Precision Nanosystems Ignite instrument with a ‘NextGen’ mixing chamber. […] A 3:1 aqueous to ethanol mixing ratio was used. The formulated LNP then were dialyzed in 1 L of water and exchanged 2 times over 18 hours. Dialyzed LNPs were filtered using 0.2 μm filter. Prior to in vivo dosing, LNPs were diluted in PBS. LNP sizes were determined by dynamic light scattering. A cuvette with 1 mL of 20 μg/mL LNPs in PBS (pH 7.4) was measured for Z-average using the Malvern Panalytical Zetasizer Pro. The Z-average and polydispersity index were recorded.
Lipid Nanoparticles (LNPs) were formed using a Precision Nanosystems Ignite instrument with a ‘NextGen’ mixing chamber. […] A 3:1 aqueous to ethanol mixing ratio was used. The formulated LNPs were then dialyzed in 1 L of water and exchanged 2 times over 18 hours. Dialyzed LNPs were filtered using 0.2 μm filter. Prior to in vivo dosing, LNPs were diluted in PBS. LNP sizes were determined by dynamic light scattering. A cuvette with 1 mL of 20 μg/mL LNPs in PBS (pH 7.4) was measured for Z-average using the Malvern Panalytical Zetasizer Pro. The Z-average and polydispersity index were recorded.
Lipid Nanoparticles (LNPs) were formed using a Precision Nanosystems Ignite instrument with a ‘NextGen’ mixing chamber. […] A 3:1 aqueous to ethanol mixing ratio was used. The formulated LNPs were then dialyzed in 1 L of 1×PBS and exchanged 2 times over 18 hours. Dialyzed LNPs were filtered using 0.2 μm filter. Prior to in vivo dosing, LNPs were diluted in PBS. LNP sizes were determined by dynamic light scattering. A cuvette with 1 mL of 20 μg/mL LNPs in PBS (pH 7.4) was measured for Z-average using the Malvern Panalytical Zetasizer Pro. The Z-average and polydispersity index were recorded.

1C1C7 cells [3] = assay: Modified IRES, stop codon cassettes, 5′ UTR variants: GLuc luminescence in 1C1C7 cells; assay type: cell-based; conditions: 24 and 48 hours after transfection
Text: This example describes modifications of CK-739, AP-748, and PV-743 IRES sequences, including mutations alternative translation initiation sites.
This example describes modifications of circular RNAs by introducing stop codon or cassette variants. […] 1C1C7 cells were transfected with the circular RNAs.
This example describes modifications of circular RNAs by inserting 5′ UTR variants. […] 1C1C7 cells were transfected with the circular RNAs.

splenic immune cells = assay: Cre circular RNA LNPs in Cre reporter (Ai9) mice: tdTomato+ splenic immune cells; assay type: in vivo; conditions: 0.5 mg/kg RNA intravenously, 48 hr, 0.5 mg/kg
Experimental: Circular RNAs encoding Cre recombinase (Cre) are encapsulated into lipid nanoparticles as previously described. Female, 6-8 week old B6.Cg-Gt(ROSA)26Sortm9(CAG-tdTomato)Hze/J (Ai9) mice were dosed with lipid nanoparticles at 0.5 mg/kg RNA intravenously. Fluorescent tdTomato protein was transcribed and translated in Ai9 mice upon Cre recombination, meaning circular RNAs have been delivered to and translated in tdTomato+ cells. After 48 hr, mice were euthanized and the spleens were harvested, processed into a single cell suspension, and stained with various fluorophore-conjugated antibodies for immunophenotyping via flow cytometry.
Ai9 mice (B6.Cg-Gt(ROSA)26Sortm9(CAG-tdTomato)Hze/J, female, 6-8 weeks, n=3 per group) were injected i.v. with 0.5 mg/kg Cre oRNA LNPs or PBS. Ai9 mice transcribe and translate the fluorescent reporter tdTomato upon Cre recombination; meaning cells which are tdTomato+ have successfully been transfected with Cre oRNA.

1C1C7 cells [4] = assay: GLuc luminescence and functional stability by IRES in 1C1C7 cells; conditions: 100 ng circularization reaction per 20,000 cells
HEK293 cells = assay: GLuc luminescence by IRES in HEK293 cells; conditions: 100 ng circularization reaction per 20,000 cells

Molecule | RNA Entrapment(%) [1] [%] | PDI [2] | Z-Average(nm) [2] [nm] | other results
CCCCCCCCC(CCCCCC)C(=O)OCCCCCCN(CCCCCCOC(=O)C(CCCCCC)CCCCCCCC)CCCn1ccnc1 (centres unmarked) [Lipid 26, Table 10a] | 96 | 0.04 | 84 | 
CCCCCCCCCCCCCCSCCOC(=O)CCN(CCCn1ccnc1)CCC(=O)OCCSCCCCCCCCCCCCCC [93-S14, bis(2-(tetradecylthio)ethyl) 3,3′-((3-(1H-imidazol-1-yl)propyl)azanediyl)dipropionate] | 95 | 0.04 | 74 | 
CCCCCCCCCCCCCCSCCOC(=O)CCN(CCCn1ccnc1C)CCC(=O)OCCSCCCCCCCCCCCCCC [22-S14, bis(2-(tetradecylthio)ethyl) 3,3′-((3-(2-methyl-1H-imidazol-1-yl)propyl)azanediyl)dipropionate] | 97 | 0.05 | 64 | 
UTR3: 5′ UTR variant: "a higher-GC/structured spacer with a kozak sequence" (DNA CGAACTAGTATTCTTCTGGTCCCCACAGACTCAGAGAGAACCCGCCACC; expressed or natural sequence) |  |  |  | translation / expression (luminescence in supernatant) (1C1C7 cells [3]): did not show the same benefit
CCCCCCCCC(CCCCCC)C(=O)OCCCCCCN(CCCCCCOC(=O)C(CCCCCC)CCCCCCCC)CCCn1ccnc1 (centres unmarked) [Lipid 26 from Table 10a] |  |  |  | proportion of splenic immune cells expressing tdTomato (transfection) (splenic immune cells): significantly higher myeloid and T cell transfection compared with Lipid 93-S14; also recorded: effective at delivering circular RNAs to many splenic immune cell subsets in mice
UTR2: 5′ UTR variant: canonical Kozak sequence with "a 36-nucleotide unstructured/low GC spacer sequence" added (DNA AATAAGAGAGAAAAGAAGAGTAAGAAGAAATATAAGAGCCACC; expressed or natural sequence) |  |  |  | translation / expression (luminescence in supernatant) (1C1C7 cells [3]): more effective
Salivirus A SZ-1 (nucleic acid) DNA: TCTGTCCTCACCCCATCTTCCCTTCTTTCCTGCACCGTTACGCTTACTCGCATGTGCATTGAGTGGTGCACGTGCTTGAACAAACAGCTACACTCACATGGGGGCGGGTTTTCCCGCCCTGCGGCCTCTCGCGAGGCCCACCCCTCCCCTTCCTCCCATAACTACAGTGCTTTGGTAGGTAAGCATCCTGATCCCCCGCGGAAGCTGCTCACGTGGCAACTGTGGGGACCCAGACAGGTTATCAAAGGCACCCGGTCTTTCCGCCTTCAGGAGTATCCCTGCTAGTGAATTCTAGTAGGGCTCTGCTTGGTGCCAACCTCCCCCAAATGCGCGCTGCGGGAGTGCTCTTCCCCAACTCACCCTAGTATCCTCTCATGTGTGTGCTTGGTCAGCATATCTGAGACGATGTTCCGCTGTCCCAGACCAGTCCAGTAATGGACGGGCCAGTGTGCGTAGTCGTCTTCCGGCTTGTCCGGCGCATGTTTGGTGAACCGGTGGGGTAAGGTTGGTGTGCCCAACGCCCGTACTTTGGTGATACCTCAAGACCACCCAGGAATGCCAGGGAGGTACCCCGCTTCACAGCGGGATCTGACCCTGGGCTAATTGTCTACGGTGGTTCTTCTTGCTTCCACTTCTTTCTACTGTTCATG |  |  |  | luminescence at 24 hours (1C1C7 cells [4]): high luminescence
Crohivirus B IRES: "Crohivirus B (CrVB) IRES", one of the selected IRES sequences, SEQ ID NOs: 348-389 (nucleic acid, Crohivirus B) DNA: GTATAAGAGACAGGTGTTTGCCTTGTCTTCGGACTGGCATCTTGGGACCAACCCCCCTTTTCCCCAGCCATGGGTTAAATGGCAATAAAGGACGTAACAACTTTGTAACCATTAAGCTTTGTAATTTTGTAACCACTAAGCTTTGTGCACATAATGTAACCATCAAGCTTGTTAGTCCCAGCAGGAGGTTTGCATGCTTGTAGCCGAAATGGGGCTCGACCCCCCATAGTAGGATACTTGATTTTGCATTCCATTGTGGACCTGCAAACTCTACACATAGAGGCTTTGTCTTGCATCTAAACACCTGAGTACAGTGTGTACCTAGACCCTATAGTACGGGAGGACCGTTTGTTTCCTCAATAACCCTACATAATAGGCTAGGTGGGCATGCCCAATTTGCAAGATCCCAGACTGGGGGTCGGTCTGGGCAGGGTTAGATCCCTGTTAGCTACTGCCTGATAGGGTGGTGCTCAACCATGTGTAGTTTAAATTGAGCTGTTCATATACC |  |  |  | luminescence at 24 hours (HEK293 cells): highest luminescence
